From patent publication US6472348B1, “Pyridone derivatives and herbicides” (Kumiai Chemical Industry Co., Ltd., priority 1996, dated 2002)

These molecules were tested on monochoria (Mo) (assay: Test Example 1: herbicidal effects by paddy field soil treatment). Conditions: 100 g of the active ingredient per 10 ares, 21st day after the application, index 0-5 of Table 47.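 Also: grade of growth control; 5 = at least 90%; 4 = 70 to 90%; 3 = 50 to 70%; 2 = 30 to 50%; 1 = 10 to 30%; 0 = under 10%.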
Assay type: in vivo
How it was run: (§1)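 Herbicidal effect was scored against a graded standard 21 days after treatment. Seeds were sown in puddled, leveled paddy soil flooded to 3 cm depth, and the active ingredient was applied at 100 g per 10 ares before greenhouse culture.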

Q: With `Cn1c(C(F)(F)F)ccc(-c2cc(C=O)c(Cl)cc2F)c1=O` [Compound No. 1-81, 5-[1--methyl-6-trifluoromethyl-2(1H)-pyridon-3-yl]-2-chloro-4-fluorobenzaldehyde] as the molecule, how does the “Herbicidal effects Mo” value read?
A: 5

Q: `Cc1cc(-c2cc(OC(C)C)c(Cl)cc2F)c(=O)n(C)c1C(F)(F)F` [1-80] was tested. Which “Herbicidal effects Mo” value did it give?
A: 5

These molecules were tested on barnyardgrass (Ec) in the same assay as above. Conditions: 100 g of the active ingredient per 10 ares, 21st day after the application, index 0-5 of Table 47.
Assay type: in vivo
How it was run: as §1

Q: With `Cn1c(C(F)(F)F)ccc(-c2cc(C=O)c(Cl)cc2F)c1=O` [Compound No. 1-81, 5-[1--methyl-6-trifluoromethyl-2(1H)-pyridon-3-yl]-2-chloro-4-fluorobenzaldehyde] as the molecule, how does the “Herbicidal effects Ec” value read?
A: 5

Q: Which “Herbicidal effects Ec” value does the source give for `Cc1cc(-c2cc(OC(C)C)c(Cl)cc2F)c(=O)n(C)c1C(F)(F)F` [1-80] here?
A: 5

These molecules were tested on bulrush (Sc) in the same assay as above. Conditions: 100 g of the active ingredient per 10 ares, 21st day after the application, index 0-5 of Table 47.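 Also: grade of growth control; 5 = at least 90%; 4 = 70 to 90%; 3 = 50 to 70%; 2 = 30 to 50%; 1 = 10 to 30%; 0 = under 10%.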
Assay type: in vivo
How it was run: as §1

Q: Which “Herbicidal effects Sc” value does the source give for `Cn1c(C(F)(F)F)ccc(-c2cc(C=O)c(Cl)cc2F)c1=O` [Compound No. 1-81, 5-[1--methyl-6-trifluoromethyl-2(1H)-pyridon-3-yl]-2-chloro-4-fluorobenzaldehyde] here?
A: 5

Q: For `Cc1cc(-c2cc(OC(C)C)c(Cl)cc2F)c(=O)n(C)c1C(F)(F)F` [1-80], which “Herbicidal effects Sc” value is on record?
A: 5

What follows are molecules tested on rice flatsedge (Ci) (assay: Test Example 2: herbicidal effects by upland field soil treatment). Conditions: 100 g of the active ingredient per 10 ares, 21st day after the application, index 0-5 of Table 47.
Assay type: in vivo
Excerpt: (§2) (Test on Herbicidal Effects by Upland Field Soil Treatment)

Q: For `Cn1c(C(F)(F)F)ccc(-c2cc(C=O)c(Cl)cc2F)c1=O` [Compound No. 1-81, 5-[1--methyl-6-trifluoromethyl-2(1H)-pyridon-3-yl]-2-chloro-4-fluorobenzaldehyde], which “Herbicidal effects Ci” value is on record?
A: 5

Q: With `Cc1cc(-c2cc(OC(C)C)c(Cl)cc2F)c(=O)n(C)c1C(F)(F)F` [1-80] as the molecule, how does the “Herbicidal effects Ci” value read?
A: 5

What follows are molecules tested on common lambsquarters (Ch) in the same assay as above. Conditions: 100 g of the active ingredient per 10 ares, 21st day after the application, index 0-5 of Table 47.
Assay type: in vivo
Excerpt: as §2

Q: For `Cn1c(C(F)(F)F)ccc(-c2cc(C=O)c(Cl)cc2F)c1=O` [Compound No. 1-81, 5-[1--methyl-6-trifluoromethyl-2(1H)-pyridon-3-yl]-2-chloro-4-fluorobenzaldehyde], which “Herbicidal effects Ch” value is on record?
A: 5

Q: With `Cc1cc(-c2cc(OC(C)C)c(Cl)cc2F)c(=O)n(C)c1C(F)(F)F` [1-80] as the molecule, how does the “Herbicidal effects Ch” value read?
A: 5

What follows are molecules tested on Digitaria ciliaris (Di) in the same assay as above. Conditions: 100 g of the active ingredient per 10 ares, 21st day after the application, index 0-5 of Table 47.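 Also: grade of growth control; 5 = at least 90%; 4 = 70 to 90%; 3 = 50 to 70%; 2 = 30 to 50%; 1 = 10 to 30%; 0 = under 10%.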
Assay type: in vivo
Excerpt: as §2

Q: How did the “Herbicidal effects Di” value turn out when `Cn1c(C(F)(F)F)ccc(-c2cc(C=O)c(Cl)cc2F)c1=O` [Compound No. 1-81, 5-[1--methyl-6-trifluoromethyl-2(1H)-pyridon-3-yl]-2-chloro-4-fluorobenzaldehyde] was run?
A: 5

Q: `Cc1cc(-c2cc(OC(C)C)c(Cl)cc2F)c(=O)n(C)c1C(F)(F)F` [1-80] was tested. Which “Herbicidal effects Di” value did it give?
A: 5

What follows are molecules tested on barnyardgrass (Ec) in the same assay as above. Conditions: 100 g of the active ingredient per 10 ares, 21st day after the application, index 0-5 of Table 47.
Assay type: in vivo
Excerpt: as §2

Q: How did the “Herbicidal effects Ec” value turn out when `Cn1c(C(F)(F)F)ccc(-c2cc(C=O)c(Cl)cc2F)c1=O` [Compound No. 1-81, 5-[1--methyl-6-trifluoromethyl-2(1H)-pyridon-3-yl]-2-chloro-4-fluorobenzaldehyde] was run?
A: 5

Q: `Cc1cc(-c2cc(OC(C)C)c(Cl)cc2F)c(=O)n(C)c1C(F)(F)F` [1-80] was tested. Which “Herbicidal effects Ec” value did it give?
A: 5

What follows are molecules tested on pale smartweed (Po) in the same assay as above. Conditions: 100 g of the active ingredient per 10 ares, 21st day after the application, index 0-5 of Table 47.
Assay type: in vivo
Excerpt: as §2

Q: For `Cn1c(C(F)(F)F)ccc(-c2cc(C=O)c(Cl)cc2F)c1=O` [Compound No. 1-81, 5-[1--methyl-6-trifluoromethyl-2(1H)-pyridon-3-yl]-2-chloro-4-fluorobenzaldehyde], which “Herbicidal effects Po” value is on record?
A: 5

Q: With `Cc1cc(-c2cc(OC(C)C)c(Cl)cc2F)c(=O)n(C)c1C(F)(F)F` [1-80] as the molecule, how does the “Herbicidal effects Po” value read?
A: 5

Each molecule was assayed on slender amaranth (Am) in the same assay as above. Conditions: 100 g of the active ingredient per 10 ares, 21st day after the application, index 0-5 of Table 47.
Assay type: in vivo
Excerpt: as §2

Q: `Cn1c(C(F)(F)F)ccc(-c2cc(C=O)c(Cl)cc2F)c1=O` [Compound No. 1-81, 5-[1--methyl-6-trifluoromethyl-2(1H)-pyridon-3-yl]-2-chloro-4-fluorobenzaldehyde] was tested. Which “Herbicidal effects Am” value did it give?
A: 5

Q: For `Cc1cc(-c2cc(OC(C)C)c(Cl)cc2F)c(=O)n(C)c1C(F)(F)F` [1-80], which “Herbicidal effects Am” value is on record?
A: 5

What follows are molecules tested on rice flatsedge (Ci) (assay: Test Example 3: herbicidal effects by upland field foliage treatment). Conditions: 100 g of the active ingredient per 10 ares, evaluated on the 14th day after treatment.
Assay type: in vivo
Set-up: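 grade of growth control; 5 = at least 90%; 4 = 70 to 90%; 3 = 50 to 70%; 2 = 30 to 50%; 1 = 10 to 30%; 0 = under 10%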
How it was run: (§3)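 Readout: visual herbicidal rating per defined standards, 14th day after treatment. Plants sown in sand (pot area 120 cm^2), soil-covered, greenhouse-cultured for 2 weeks prior to foliage application, then greenhouse-grown until scoring.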

Q: How did the “Herbicidal effects Ci” value turn out when `Cn1c(C(F)(F)F)ccc(-c2cc(C=O)c(Cl)cc2F)c1=O` [Compound No. 1-81, 5-[1--methyl-6-trifluoromethyl-2(1H)-pyridon-3-yl]-2-chloro-4-fluorobenzaldehyde] was run?
A: 5

Q: How did the “Herbicidal effects Ci” value turn out when `Cc1cc(-c2cc(OC(C)C)c(Cl)cc2F)c(=O)n(C)c1C(F)(F)F` [1-80] was run?
A: 5

The molecules below were run on common lambsquarters (Ch) in the same assay as above. Conditions: 100 g of the active ingredient per 10 ares, evaluated on the 14th day after treatment.
Assay type: in vivo
Set-up: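 grade of growth control; 5 = at least 90%; 4 = 70 to 90%; 3 = 50 to 70%; 2 = 30 to 50%; 1 = 10 to 30%; 0 = under 10%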
How it was run: as §3

Q: `Cn1c(C(F)(F)F)ccc(-c2cc(C=O)c(Cl)cc2F)c1=O` [Compound No. 1-81, 5-[1--methyl-6-trifluoromethyl-2(1H)-pyridon-3-yl]-2-chloro-4-fluorobenzaldehyde] was tested. Which “Herbicidal effects Ch” value did it give?
A: 5

Q: Which “Herbicidal effects Ch” value does the source give for `Cc1cc(-c2cc(OC(C)C)c(Cl)cc2F)c(=O)n(C)c1C(F)(F)F` [1-80] here?
A: 5

Each molecule was assayed on barnyardgrass (Ec) in the same assay as above. Conditions: 100 g of the active ingredient per 10 ares, evaluated on the 14th day after treatment.
Assay type: in vivo
Set-up: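 grade of growth control; 5 = at least 90%; 4 = 70 to 90%; 3 = 50 to 70%; 2 = 30 to 50%; 1 = 10 to 30%; 0 = under 10%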
How it was run: as §3

Q: How did the “Herbicidal effects Ec” value turn out when `Cn1c(C(F)(F)F)ccc(-c2cc(C=O)c(Cl)cc2F)c1=O` [Compound No. 1-81, 5-[1--methyl-6-trifluoromethyl-2(1H)-pyridon-3-yl]-2-chloro-4-fluorobenzaldehyde] was run?
A: 5

Q: Which “Herbicidal effects Ec” value does the source give for `Cc1cc(-c2cc(OC(C)C)c(Cl)cc2F)c(=O)n(C)c1C(F)(F)F` [1-80] here?
A: 5

The molecules below were run on pale smartweed (Po) in the same assay as above. Conditions: 100 g of the active ingredient per 10 ares, evaluated on the 14th day after treatment.
Assay type: in vivo
Set-up: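 grade of growth control; 5 = at least 90%; 4 = 70 to 90%; 3 = 50 to 70%; 2 = 30 to 50%; 1 = 10 to 30%; 0 = under 10%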
How it was run: as §3

Q: Which “Herbicidal effects Po” value does the source give for `Cn1c(C(F)(F)F)ccc(-c2cc(C=O)c(Cl)cc2F)c1=O` [Compound No. 1-81, 5-[1--methyl-6-trifluoromethyl-2(1H)-pyridon-3-yl]-2-chloro-4-fluorobenzaldehyde] here?
A: 5

Q: With `Cc1cc(-c2cc(OC(C)C)c(Cl)cc2F)c(=O)n(C)c1C(F)(F)F` [1-80] as the molecule, how does the “Herbicidal effects Po” value read?
A: 5

The molecules below were run on slender amaranth (Am) in the same assay as above. Conditions: 100 g of the active ingredient per 10 ares, evaluated on the 14th day after treatment.
Assay type: in vivo
Set-up: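 grade of growth control; 5 = at least 90%; 4 = 70 to 90%; 3 = 50 to 70%; 2 = 30 to 50%; 1 = 10 to 30%; 0 = under 10%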
How it was run: as §3

Q: For `Cn1c(C(F)(F)F)ccc(-c2cc(C=O)c(Cl)cc2F)c1=O` [Compound No. 1-81, 5-[1--methyl-6-trifluoromethyl-2(1H)-pyridon-3-yl]-2-chloro-4-fluorobenzaldehyde], which “Herbicidal effects Am” value is on record?
A: 5

Q: With `Cc1cc(-c2cc(OC(C)C)c(Cl)cc2F)c(=O)n(C)c1C(F)(F)F` [1-80] as the molecule, how does the “Herbicidal effects Am” value read?
A: 5

The molecules below were run on Diaitaria ciliaris (Di) in the same assay as above. Conditions: 100 g of the active ingredient per 10 ares, evaluated on the 14th day after treatment.
Assay type: in vivo
Set-up: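 grade of growth control; 5 = at least 90%; 4 = 70 to 90%; 3 = 50 to 70%; 2 = 30 to 50%; 1 = 10 to 30%; 0 = under 10%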
How it was run: as §3

Q: `Cn1c(C(F)(F)F)ccc(-c2cc(C=O)c(Cl)cc2F)c1=O` [Compound No. 1-81, 5-[1--methyl-6-trifluoromethyl-2(1H)-pyridon-3-yl]-2-chloro-4-fluorobenzaldehyde] was tested. Which “Herbicidal effects Di” value did it give?
A: 5

Q: How did the “Herbicidal effects Di” value turn out when `Cc1cc(-c2cc(OC(C)C)c(Cl)cc2F)c(=O)n(C)c1C(F)(F)F` [1-80] was run?
A: 5
